We go through 10 molecules from patent publication US9944598B2, “Mono- or di-substituted indole derivatives as dengue viral replication inhibitors” (priority 2014, dated 2018).

Molecules are shown by their SMILES.

For data set [1], the system named is DENV-2 16681 strain labeled with eGFP. Briefly: DENV-2 antiviral assay (eGFP fluorescence, Vero cells). The class given is cell-based, Dengue virus. The following applies: DENV-2 16681 eGFP, MOI 0.5, 3 days. As to the method:
The antiviral activity of all the compounds of the invention was tested against DENV-2 16681 strain which was labeled with enhanced green fluorescent protein (eGPF). The culture medium consists of minimal essential medium supplemented with 2% of heat-inactivated fetal calf serum, 0.04% gentamycin (50 mg/mL) and 2 mM of L-glutamine. Vero cells, obtained from ECACC, were suspended in culture medium and 25 μL was added to 384-well plates (2500 cells/well), which already contain the antiviral compounds. Typically, these plates contain a 4-fold serial dilution of 9 dilution steps of the test compound at 200 times the final concentration in 100% DMSO (200 nL). In addition, each compound concentration is tested in quadruplicate (final concentration range: 25 μM-0.00038 μM). Finally, each plate contains wells which are assigned as virus controls (containing cells and virus in the absence of compound), cell controls (containing cells in the absence of virus and compound) and medium controls (containing medium in the absence of cells, virus and compounds). To the wells assigned as medium control, 25 μL of culture medium was added instead of Vero cells. Once the cells were added to the plates, the plates were incubated for 30 minutes at room temperature to allow the cells to distribute evenly within the wells. Next, the plates were incubated in a fully humidified incubator (37° C., 5% CO2) until the next day. Then, DENV-2 strain 16681, labeled with eGFP, was added at a multiplicity of infection (MOI) of 0.5. Therefore, 15 μL of virus suspension was added to all the wells containing test compound and to the wells assigned as virus control. In parallel, 15 μL of culture medium was added to the medium and cell controls. Next, the plates were incubated for 3 days in a fully humidified incubator (37° C., 5% CO2). At the day of the read out, the eGFP fluorescence was measured using an automated fluorescence microscope at 488 nm (blue laser). Using an in-house LIMS system, inhibition dose response curves for each compound were calculated and the half maximal effective concentration (EC50) was determined. Therefore, the percent inhibition (I) for every test concentration is calculated using the following formula: I=100*(ST−SCC)/(SVC−SCC); ST, SCC and SVC are the amount of eGFP signal in the test compound, cell control and virus control wells, respectively. The EC50 represents the concentration of a compound at which the virus replication is inhibited with 50%, as measured by a 50% reduction of the eGFP fluorescent intensity compared to the virus control. The EC50 is calculated using linear interpolation (Table 1).

A short description of the next data set: in vitro. Type of data set: cell-based. The following applies: African green monkey, CC50. As to the method: (§1) In parallel, the toxicity of the compounds was assessed on the same plates. Once the read-out for the eGFP signal was done, 10 μL of resazurin, a cell viability stain, was added to all wells of the 384-well plates. The resazurin assay is based on the reduction of the blue resazurin by NADH, produced by the cells, into the highly fluorescent product, resorufin. The formation of pink fluorescent resorufin is directly related to the number of viable cells in the well. The plates were incubated for an additional 5 hours in a fully humidified incubator (37° C., 5% CO2). Next, the plates were measured on an Infinite reader (Tecan) using an excitation wavelength of 530 nm. The half maximal cytotoxic concentration (CC50) was also determined, defined as the concentration required to reduce the resazurin conversion by 50% compared to that of the cell control wells (Table 1). Finally, the selectivity index (SI) is determined for the compounds, which is calculated as followed: SI=CC50/EC50.

The subject of another data set is Vero cells. The experiment in a line: in vitro. As to conditions: African green monkey. The class given is cell-based. As to the method: as §1
The mark [2] stands for this setting: Dengue virus, DENV2, Vero, 72 h.

Broadly, the EC50 is the concentration giving half of the maximal effect. By CC50 is commonly meant the concentration that lowers cell viability or growth by half.

Molecule `COc1cc(NC(C(=O)c2c[nH]c3cc(F)ccc23)c2ccc(Cl)cc2OC)cc(OCCO)c1` (racemic) [Compound 1, 2-(4-chloro-2-methoxyphenyl)-1-(6-fluoro-1H-indol-3-yl)-2-((3-(2-hydroxyethoxy)-5-methoxyphenyl)amino)ethanone] gave a half-maximal effective concentration (EC50) in data set [1] (setting [2]) of 3 nM. Further, the CC50 in “in vitro” was 6.2 µM.

`COc1cc(NC(C(=O)c2c[nH]c3cc(OC)ccc23)c2ccc(Cl)cc2OC)cc(OCCO)c1` (racemic) [Compound 5, 2-(4-chloro-2-methoxyphenyl)-2-((3-(2-hydroxyethoxy)-5-methoxyphenyl)amino)-1-(6-methoxy-1H-indol-3-yl)ethanone] returned an EC50 in data set [1] (setting [2]) of 2.3 nM. The molecule also displayed a CC50 in “in vitro” of 6.5 µM.

Turning to `COc1cc(NC(C(=O)c2c[nH]c3cc(OC)c(C)cc23)c2ccc(Cl)cc2OC)cc(OCCO)c1` (racemic) [Compound 6, 2-(4-chloro-2-methoxyphenyl)-2-((3-(2-hydroxyethoxy)-5-methoxyphenyl)amino)-1-(6-methoxy-5-methyl-1H-indol-3-yl)ethanone], a half-maximal response in data set [1] (setting [2]) (EC50) required 1.2 nM. The midpoint of cytotoxicity in the data set “in vitro”, the CC50, lay at 5.6 µM.

With `COc1cc(NC(C(=O)c2c[nH]c3cc(OC)c(F)cc23)c2ccc(Cl)cc2OC)cc(OCCO)c1` (racemic) [Compound 7, 2-(4-chloro-2-methoxyphenyl)-1-(5-fluoro-6-methoxy-1H-indol-3-yl)-2-((3-(2-hydroxyethoxy)-5-methoxyphenyl)amino)ethanone], in data set [1] (setting [2]), the 50% effective concentration (EC50) is 2.6 nM. Also, the CC50 in “in vitro” turned out to be 7.4 µM.

In data set [1] (setting [2]), `COc1cc(NC(C(=O)c2c[nH]c3c(C)cc(F)cc23)c2ccc(Cl)cc2OC)cc(OCCO)c1` (racemic) [Compound 8, 2-(4-chloro-2-methoxyphenyl)-1-(5-fluoro-7-methyl-1H-indol-3-yl)-2-((3-(2-hydroxyethoxy)-5-methoxyphenyl)amino)ethanone] displayed a half-maximal effective concentration (EC50) of 2.4 nM. In the data set “in vitro”, this molecule yielded a cytotoxic concentration (CC50) of 8 µM.

In the case of `COc1cc(NC(C(=O)c2c[nH]c3cc(F)c(F)cc23)c2ccc(Cl)cc2OC)cc(OCCO)c1` (racemic) [Compound 9, 2-(4-chloro-2-methoxyphenyl)-1-(5,6-difluoro-1H-indol-3-yl)-2-((3-(2-hydroxyethoxy)-5-methoxyphenyl)amino)ethanone], in data set [1] (setting [2]), the EC50 was 2.2 nM. In the data set “in vitro”, this molecule came in with a CC50 of 7.3 µM.

In turn, `COc1cc(NC(C(=O)c2c[nH]c3c(F)c(F)ccc23)c2ccc(Cl)cc2OC)cc(OCCO)c1` (racemic) [Compound 11, 2-(4-chloro-2-methoxyphenyl)-1-(6,7-difluoro-1H-indol-3-yl)-2-((3-(2-hydroxyethoxy)-5-methoxyphenyl)amino)ethanone] yielded an EC50 in data set [1] (setting [2]) of 3.1 nM. In “in vitro”, the midpoint of cytotoxicity, the CC50, lay at 5.8 µM.

In turn, `COc1cc(NC(C(=O)c2c[nH]c3cc(F)ccc23)c2ccc(Cl)cc2OC)cc(OCCO)c1` (single isomer, unassigned) [Compound 1B, 2-(4-chloro-2-methoxyphenyl)-1-(6-fluoro-1H-indol-3-yl)-2-((3-(2-hydroxyethoxy)-5-methoxyphenyl)amino)ethanone] gave a 50% effective concentration (EC50) in data set [1] of 140 nM. In the data set with Vero cells, this molecule showed a CC50 of 6.3 µM.

For the molecule `COc1cc(NC(C(=O)c2c[nH]c3c(F)c(F)ccc23)c2ccc(Cl)cc2OC)cc(OCCO)c1` (single isomer, unassigned) [Compound 11A, 2-(4-chloro-2-methoxyphenyl)-1-(6,7-difluoro-1H-indol-3-yl)-2-((3-(2-hydroxyethoxy)-5-methoxyphenyl)amino)ethanone], in data set [1], a half-maximal response (EC50) required 90 nM. The molecule further showed a CC50 in “in vitro” of 6.5 µM.

`COc1cc(NC(C(=O)c2c[nH]c3c(F)cc(C)cc23)c2ccc(Cl)cc2OC)cc(OCCO)c1` (centres unmarked) [Compound 10, 2-(4-chloro-2-methoxyphenyl)-1-(7-fluoro-5-methyl-1H-indol-3-yl)-2-((3-(2-hydroxyethoxy)-5-methoxyphenyl)amino)ethanone] displayed a 50% effective concentration (EC50) in data set [1] (setting [2]) of 7.5 nM. Also, the midpoint of cytotoxicity in the data set “in vitro”, the CC50, lay at 5.8 µM.
